Source: patent publication US10897891B2, “Compositions and methods for prolonged cell storage” (Board of Regents, The University of Texas System, priority 2015, dated 2021)
Several values for one entry are separate records, joined by “and”; a condition that tells them apart may be missing. Identical values can stand only once. Entries after “also recorded” stand apart in the source; their conditions may differ.

Legend:
[1] = test system: platelets; assay: Platelet degranulation by anti-von Willebrand factor immunofluorescent staining (Experiment D); type: cell-based, human; conditions: 1.5% PEG-400, 5° C., 8 days, rotation
Procedure: Functional, non-degranulated, platelets should retain vWF at high concentrations in their alpha granules. To study the effect of PEG on gradual loss or preservation a direct fluorescent antibody immunoflorescent staining protocol was developed. Slides were air dried for 5 min and immersed in 0.5% fresh paraformaldehyde in 10% PBS pH 7.3 for 10 min. Slides were soaked for 2 min in PBS with 5 changes. Subsequently excess PBS was drained and slides immersed for 2 min in ice cold dry acetone. Again, slides were drained and excess acetone was removed with 5 PBS washings of 2 min each. Slides were then immersed in 0.5% filter sterilized BSA in PBS and allowed to block overnight at 4° C. After draining excess block solution, 50 ul of primary antibody (Polyclonal rabbit anti-vWF-PB9062, Boster Biological Technology, Pleasanton, Calif.) at 5 ng/ml was applied immediately over the platelet spot and incubated in a humidity chamber for 4 hr at 4° C. Slides were washed with 5 changes of 0.5% BSA/PBS for 5 min each. Excess fluid was again removed and FITC labeled goatd anti-rabbit, Sigma F0382, was added 50 ug/ml in 0.5% BSA/PBS for 3 hr. […]
von Willebrand Factor (vWF) is a major component of platelet alpha granules. […] No post photographic image adjustments were made to images analyzed.

[2] = test system: stored human platelets in thrombocytopenic CD-1 outbred mice; assay: Platelet storage vs platelet function in a mouse model of thrombocytopenia (tail vein bleeding, blotter weight); type: in vivo; conditions: for Weight of blood after tail vein cut, single animals: 1% PEG-400 in PBS, platelets stored at room temp.
Procedure: Fresh human platelets were obtained from the blood bank. These were pooled, mixed and divided twice to give 4 (new) platelet bags with 65 ml (+/−5 ml) in each. Next sterile PBS/PEG mixtures were made by adding filter sterilized PEG-400 (30% in PBS) serially diluting 1:4. (14 ml PBS+6 ml of PEG400=30% PEG, serially 1:4 diluted with PBS to give 7.5% PEG400, and 1.9% PEG400). Then, 10 ml of PBS or PBS/PEG was added into each platelet bag as follows: 10 ml PBS is 0 control=A; 10 ml of 1.9 is 0.25% peg final in platelets (a low dose tolerated by whole animal see below)=B; 10 ml of 7.5% gives 1% PEG-400 final (the max PEG400 dose tolerated by whole animal see below), =C; 10 ml of 30% gives 4% about 4 times the max dose tolerated in rhesus monkeys. Units were held at room temp 70 cycles/min, 1 inch stroke). The platelet units were confirmed to be negative for bacterial growth using 3 ml the platelet suspensions in Bactec blood culture bottles at 72 hr.
CD-1 outbred mice were obtained from Harlan Laboratories. All animals were pretreated with a 0.5 ml IP dose of 185 ug/mouse of filter sterilized fresh acetylsalicylic acid (aspirin) in PBS buffer. Fresh aspirin was used. Salicylate is the active metabolite responsible for most anti-inflammatory and analgesic effects; however, acetylsalicylate is the active moiety for the antiplatelet-aggregation effect and is rapidly hydrolyzed in water. On the following day all mice were given 3 U (heparin equivalents)/animal Lovenox (Enoxaparin Sodium Injection). After a 2 hr period for Lovenox to take full effect, the animals were given 100 ul platelets by IV tail vein injection, the platelets were allowed to circulate […] and the tail vein cut 1 cm from the tip with a new scapula for each animal. Bleeding was measured by collecting drops of blood for exactly 5 min on pre-weighed blotter paper Whatmen-40. The blotters were then weighed and these weights were compared using unpaired t test statistics. Platelets having an excessive amount of RBC in the units were sedimented under gravity in a 50 ml tube for 30 min and only the top 5 ml was harvested into a second 50 ml tube used for injection.)
Briefly, the animal model experiments were performed as follows. Fresh human platelets were obtained from a blood bank, consisting of 3 ABO ‘O’ units and 2 ABO ‘A’ units. These were pooled, mixed and divided twice to give 4 (new) platelet bags with 75 ml (+/−5 ml) in each. Next sterile PBS/PEG mixtures were made by adding filter sterilized PEG-400 (30% in PBS) serially diluting 1:4. (14 ml PBS+6 ml of PEG=30% PEG, serial ¼ diluted with PBS to give 7.5% PEG, and 1.9% PEG400). 10 ml of PBS or PBS/PEG was then added to each platelet bag as follows. […] Units were held at room temp 140 cycles/min, 0.5 inch stroke). The platelet units were confirmed as negative for bacterial growth using 3 ml in Bactec blood culture bottles at 72 hr.
CD-1 outbred mice were obtained from Harlan Laboratories. All animals were pretreated with a 0.5 ml IP dose of 185 μg/mouse of filter sterilized fresh acetylsalicylic acid in PBS buffer. On the following day all mice were given 3 U (heparin equivalents)/animal Lovenox. (Note: Aspirin was fresh. Salicylate is the active metabolite responsible for most anti-inflammatory and analgesic effects; however, acetylsalicylate is the active moiety for the antiplatelet-aggregation effect and is rapidly hydrolyzed in water. After a 2 hr period for Lovenox effect the animals were given 100 ul platelets by IV tail vein injection, the platelets were allowed to circulate 30 min and the tail vein cut 1 cm from tip with a new scapula for each animal. Bleeding was measured by collecting drops of blood for exactly 5 min on pre-weighed blotter paper Whatmen-40. The blotters were then weighed and these weights were compared using unpaired t test statistics. […]

**Q.** Which results are given for Polyethylene glycol [PEG-400]?
**A.** vWF degranulation at 5° C. [1]: sufficient to prevent vWG degranulation; also recorded: prevented vWG degranulation; Weight of blood after tail vein cut, mean (X) of combined data ([2]; 1% PEG-400, room temp. storage 11-13 days, N = 9): X = 0.043 grams; activity of stored platelets ([2]; 1% PEG-400, room temp. storage, day 11-13): active; clotting vs standard platelet storage condition ([2]; 1% PEG-400, room temp., combined day 11 and day 13 data): significantly more clotting; Weight of blood after tail vein cut, single animals ([2]; Mar. 11, 2014 group): .06 grams and .04 grams and .05 grams; Weight of blood after tail vein cut, single animals ([2]; Mar. 13, 2014 group): .05 grams and .03 grams and .02 grams; Weight of blood after tail vein cut, single animals ([2]; May 23, 2014 group): .04 grams (2×) and .06 grams
